Results taken from US20260078158A1, “COMPOSITIONS COMPRISING CXCL10-DERIVED PEPTIDES AND METHODS OF USE THEREOF” (priority 2022, published 2026).
Where two headings read alike, the source gives them in different places.

Legend:
[1] = tested on: E. cloacae species complex; experiment: microbe, parasite or virus in culture; type: cell-based, Enterobacter cloacae; conditions: Enterobacter spp. (5 isolates)
Klebsiella pneumoniae = Klebsiella pneumoniae (5 isolates)
Pseudomonas aeruginosa = experiment: microbe, parasite or virus in culture; type: cell-based; conditions: Pseudomonas aeruginosa (5 isolates)
Escherichia coli = experiment: microbe, parasite or virus in culture; type: cell-based; conditions: Escherichia coli (5 isolates)
[2] = tested on: Acinetobacter baumannii-calcoaceticus complex; experiment: microbe, parasite or virus in culture; type: cell-based; conditions: Acinetobacter spp. (5 isolates)
Staphylococcus aureus = experiment: microbe, parasite or virus in culture; type: cell-based; conditions: relative to P194-acetate; Staphylococcus aureus (5 isolates)
Enterococcus faecium = experiment: microbe, parasite or virus in culture; type: cell-based; conditions: Enterococcus faecium (3 isolates)
Streptococcus pneumoniae = experiment: microbe, parasite or virus in culture; type: cell-based; conditions: Streptococcus pneumoniae (5 isolates)
Enterococcus faecalis = experiment: microbe, parasite or virus in culture; type: cell-based; conditions: Enterococcus faecalis (2 isolates)

| Sequence | MIC50 fold change ([1]; relative to P194-acetate) | MIC50 fold change (Klebsiella pneumoniae; relative to P194-acetate) | MIC50 fold change (Pseudomonas aeruginosa; relative to P194-acetate) | MIC50 fold change (Escherichia coli; relative to P194-acetate) | MIC50 fold change ([2]; relative to P194-acetate) | MIC50 fold change (Staphylococcus aureus) | MIC50 fold change (Enterococcus faecium; relative to P194-acetate) | MIC50 fold change (Streptococcus pneumoniae; relative to P194-acetate) | MIC50 fold change (Enterococcus faecalis; relative to P194-acetate) | MIC50 fold change ([1]; relative to D8-acetate) | MIC50 fold change (Klebsiella pneumoniae; relative to D8-acetate) | MIC50 fold change (Pseudomonas aeruginosa; relative to D8-acetate) | MIC50 fold change (Escherichia coli; relative to D8-acetate) | MIC50 fold change ([2]; relative to D8-acetate) | MIC50 fold change (Enterococcus faecium; relative to D8-acetate) | MIC50 fold change (Enterococcus faecalis; relative to D8-acetate) | MIC50 fold change (Streptococcus pneumoniae; relative to D8-acetate) |
| --- | --- | --- | --- | --- | --- | --- | --- | --- | --- | --- | --- | --- | --- | --- | --- | --- | --- |
| RAVRCRCI [Peptide P194-T2A] | 0.5 | 2 | >2 | 0.5 | 0.5 | 2 | 2 | 2 | 4 |  |  |  |  |  |  |  |  |
| RAVRCTCI [Peptide D8-T2A] |  |  |  |  |  |  |  |  |  | 1 | 2 | >2 | 2 | 2 | 2 | 2 |  |
| RTARCTCI [Peptide D8-V3A] |  |  |  |  |  |  |  |  |  | >4 | >8 | >2 | 16 | 32 | 8 | >4 |  |
| RTVACTCI [Peptide D8-R4A] |  |  |  |  |  |  |  |  |  | >4 | >8 | >2 | >16 | >32 | 8 | >4 |  |
| RTVRATCI [Peptide D8-C5A] |  |  |  |  |  |  |  |  |  | >4 | >8 | >2 | >16 | >32 | >16 | >4 |  |
| RTVRCACI [Peptide D8-T6A] |  |  |  |  |  |  |  |  |  | 0.5 | 2 | 2 | 1 | 2 | 1 | 1 | 1 |
| RTVRCTAI [Peptide D8-C7A] |  |  |  |  |  |  |  |  |  | >4 | >8 | >2 | >16 | >32 | 16 | >4 |  |
| RTVRCTCA [Peptide D8-I8A] |  |  |  |  |  |  |  |  |  | 1 | 4 | 2 | 4 | 2 | 4 | 4 |  |
